Experimental data reported in publication PMC11279629, “Identification of Dihydropyrazolo[1,5-a]pyrazin-4(5H)-ones as Cyclic Products of β-Amidomethyl Vinyl Sulfone Alphavirus Cysteine Protease Inhibitors” (Pharmaceuticals, 2024).
Structures can show the parent of a compound that is named as a salt. Where two headings read alike, the source gives them in different places.

Tests used:
GSH capture assay = type: physicochemical; conditions: GSH (100×), phosphate buffer pH 7.4, 30 °C
[1] = Storage stability as solid or 10 mM DMSO stock solution
[2] = Pharmacokinetics in mice, 10 mg/kg i.v.; type: in vivo, Male CD1 mice; conditions: for half-life: plasma, 10 mg/kg
Procedure: Although vinyl sulfones have been used as covalent warheads for inhibition of a wide range of cysteine proteases, there are relatively few reports of their use in vivo [14].
Blood samples were centrifuged at 4000× g for 5 min at 4 °C to obtain plasma. The plasma samples from each time point were pooled and then analyzed by LCMS/MS. The PK parameters were estimated by a non-compartmental model using WinNonlin 8.3.

VEEV nsP2 protease = conditions: cited from earlier work
VEEV = conditions: read-out: VEEV EC50 (alphavirus replication); cited from earlier work

CS(=O)(=O)CC1CNC(=O)c2cc(NS(=O)(=O)c3ccccc3)nn21 (stereo not shown) (as salt: TFA) [Compound 8, N-(7-((methylsulfonyl)methyl)-4-oxo-4,5,6,7-tetrahydropyrazolo[1,5-a]pyrazin-2-yl)benzenesulfonamide]
melting point: 222 °C

CCOc1ccccc1-c1cc2n(n1)C(CS(C)(=O)=O)CNC2=O (stereo not shown) [Compound 2, 2-(2-ethoxyphenyl)-7-((methylsulfonyl)methyl)-6,7-dihydropyrazolo[1,5-a]pyrazin-4(5H)-one]
GSH-Adduct Formation (%) (GSH capture assay; 8 h): 0% | Stability upon storage [1]: stable | Plasma exposure relative to 1 [2]: 4 fold | AUC(0-t) ([2]; male, CD1, mouse, iv, pooled plasma): 3.8 µg·h/mL | half-life ([2]; male, CD1, mouse, iv, pooled plasma, read-out: T1/2 (converted)): 30.6 min | half-life ([2]; male, CD1, mouse, iv, read-out: i.v. half-life): ~30 min | Clobs ([2]; pooled plasma): 2.64 L/h/kg | Vssobs ([2]; pooled plasma): 0.32 L/kg

CS(=O)(=O)CC1CNC(=O)c2cc(NS(=O)(=O)c3ccccc3)nn21 (stereo not shown) [Compound 8, N-(7-((methylsulfonyl)methyl)-4-oxo-4,5,6,7-tetrahydropyrazolo[1,5-a]pyrazin-2-yl)benzenesulfonamide]
GSH-Adduct Formation (%) (GSH capture assay; 8 h): 3% | GSH-Adduct Formation (%) (GSH capture assay; 24 h): 6%

C[C@@H]1CC(C)(C)Nc2c(C(=O)NC/C=C/S(C)(=O)=O)cccc21 [Compound #11]
VEEV nsP2 protease activity inhibition (VEEV nsP2 protease): micromolar inhibitor | EC50 (VEEV): 1.4 µM
